Laboratory results from US8952024B2, “Herbicidal pyrimidone derivatives” (E I du Pont de Nemours and Company, priority 2009, dated 2015).

What was measured:
Assay in all cases: Test B pre-/postemergence plant response
Assay type in all cases: in vivo
[1] = tested on: velvetleaf (Abutilon theophrasti)
From the text: (§1) Seeds of plant species selected from blackgrass (Alopecurus myosuroides), downy bromegrass (Bromus tectorum), green foxtail (Setaria viridis), Italian ryegrass (Lolium multiflorum), wheat (Triticum aestivum), wild oat (Avena fatua), deadnettle (henbit deadnettle, Lamium amplexicaule), galium (catchweed bedstraw, Galium aparine), bermudagrass (Cynodon dactylon), Surinam grass (Brachiaria decumbens), cocklebur (Xanthium strumarium), corn (Zea mays), large crabgrass (Digitaria sanguinalis), woolly cupgrass (Eriochloa villosa), giant foxtail (Setaria faberii), goosegrass (Eleusine indica), johnsongrass (Sorghum halepense), kochia (Kochia scoparia), lambsquarters (Chenopodium album), morningglory (Ipomoea coccinea), nightshade (eastern black nightshade, Solanum ptycanthum), yellow nutsedge (Cyperus esculentus), pigweed (Amaranthus retroflexus), ragweed (common ragweed, Ambrosia elatior), Russian thistle (Salsola kali), soybean (Glycine max), sunflower (common oilseed sunflower, Helianthus annuus) and velvetleaf (Abutilon theophrasti) were planted into a blend of loam soil and sand and treated preemergence with test compounds formulated in a non-phytotoxic solvent mixture which included a surfactant.
(§2) At the same time, plants selected from these crop and weed species and also winter barley (Hordeum vulgare), canarygrass (Phalaris minor), chickweed (Stellaria media) and windgrass (Apera spica-venti) were planted in pots containing Redi-Earth® planting medium (Scotts Company, 14111 Scottslawn Road, Marysville, Ohio 43041) comprising spaghnum peat moss, vermiculite, wetting agent and starter nutrients and treated with postemergence applications of some of the test chemicals formulated in the same manner. Plants ranged in height from 2 to 18 cm (1- to 4-leaf stage) for postemergence treatments.
(§3) Treated plants and controls were maintained in a greenhouse for 13 to 15 days, after which time all treated plants were visually evaluated and compared to controls. Plant response ratings, summarized in Table B, are based on a scale of 0 to 100 where 0 is no effect and 100 is complete control. A dash (-) response means no test result.

corn (Zea mays) = tested on: corn (Zea mays)
From the text: as §1, §2, §3

[2] = tested on: blackgrass (Alopecurus myosuroides)
From the text: as §1, §2, §3

[3] = tested on: woolly cupgrass (Eriochloa villosa)
From the text: as §1, §2, §3

kochia (Kochia scoparia) = tested on: kochia (Kochia scoparia)
From the text: as §1, §2, §3

soybean (Glycine max) = tested on: soybean (Glycine max)
From the text: as §1, §2, §3

[4] = tested on: pigweed (Amaranthus retroflexus)
From the text: as §1, §2, §3

[5] = tested on: Surinam grass (Brachiaria decumbens)
From the text: as §1, §2, §3

[6] = tested on: Italian ryegrass (Lolium multiflorum)
From the text: as §1, §2, §3

[7] = tested on: giant foxtail (Setaria faberii)
From the text: as §1, §2, §3

[8] = tested on: ragweed (common ragweed, Ambrosia elatior)
From the text: as §1, §2, §3

[9] = tested on: downy bromegrass (Bromus tectorum)
From the text: as §1, §2, §3

[10] = tested on: johnsongrass (Sorghum halepense)
From the text: as §1, §2, §3

[11] = 250 g ai/ha, Preemergence, 0 to 100 scale
[12] = Postemergence, 62 g ai/ha, scale 0 (no effect) to 100 (complete control), 13 to 15 days
[13] = Postemergence, 125 g ai/ha, visual rating after 13 to 15 days, scale 0 (no effect) to 100 (complete control)
[14] = Preemergence, 31 g ai/ha, scale 0 to 100 (0 no effect, 100 complete control)
[15] = Preemergence, 62 g ai/ha, scale 0 to 100 (0 no effect, 100 complete control)
[16] = Preemergence, 125 g ai/ha, 0 to 100 scale
[17] = Postemergence, 31 g ai/ha, scale 0 to 100 (0 no effect, 100 complete control)
[18] = Postemergence, 250 g ai/ha, scale 0 to 100
[19] = 62 g ai/ha, postemergence, 0 is no effect, 100 is complete control, 13 to 15 days
[20] = Postemergence, 31 g ai/ha, 0 to 100 scale (0 no effect, 100 complete control)
[21] = Postemergence, 125 g ai/ha, scale 0 to 100 (0 no effect, 100 complete control)
[22] = Postemergence, 250 g ai/ha, scale 0 to 100 (0 no effect, 100 complete control), 13 to 15 days

`Cc1cc(C)cc(-n2c(-c3ccccc3)ncc(C(=O)C3=C(O)CCCC3=O)c2=O)c1` [Compound 33] was tested, and the “Plant response rating, Velvetleaf” value [1, 11] was 100, the “Plant response rating, Velvetleaf” value [1, 12] was 90 and the “Plant response rating, Velvetleaf” value [1, 13] was 98. For the same molecule, the “Plant response rating, Velvetleaf” value [1, 14] was 80, the “Plant response rating, Velvetleaf” value [1, 15] was 90 and the “Velvetleaf plant response rating” value [1, 16] was 100. For the same molecule, the “Plant response rating, Corn” value (corn (Zea mays); [11]) was 0, the “Plant response rating, Corn” value (corn (Zea mays); [17]) was 0 and the “Plant response rating, Corn” value (corn (Zea mays); [12]) was 10. The “Plant response rating, Corn” value (corn (Zea mays); [13]) was 10, the “Corn plant response rating” value (corn (Zea mays); [18]) was 15 and the “Plant response rating, Corn” value (corn (Zea mays); [14]) was 0. For the same molecule, the “Plant response rating, Corn” value (corn (Zea mays); [15]) was 0, the “Corn plant response rating” value (corn (Zea mays); [16]) was 0 and the “Plant response rating, Blackgrass” value [2, 11] was 30. The “Plant response rating, Blackgrass” value [2, 17] was 10, the “Plant response rating, Blackgrass” value [2, 12] was 15 and the “Plant response rating, Blackgrass” value [2, 13] was 30. For the same molecule, the “Blackgrass plant response rating” value [2, 18] was 30, the “Plant response rating, Blackgrass” value [2, 14] was 0 and the “Plant response rating, Blackgrass” value [2, 15] was 0. For the same molecule, the “Blackgrass plant response rating” value [2, 16] was 10, the “Plant response rating, Cupgrass, Woolly” value [3, 11] was 85 and the “Plant response rating, Cupgrass, Woolly” value [3, 17] was 65. The “Plant response rating, Cupgrass, Woolly” value [3, 12] was 65, the “Plant response rating, Cupgrass, Woolly” value [3, 13] was 70 and the “Cupgrass, Woolly plant response rating” value [3, 18] was 90. For the same molecule, the “Plant response rating, Cupgrass, Woolly” value [3, 14] was 10, the “Plant response rating, Cupgrass, Woolly” value [3, 15] was 50 and the “Cupgrass, Woolly plant response rating” value [3, 16] was 60. For the same molecule, the “Plant response rating, Kochia” value (kochia (Kochia scoparia); [12]) was 80, the “Plant response rating, Kochia” value (kochia (Kochia scoparia); [13]) was 95 and the “Kochia plant response rating” value (kochia (Kochia scoparia); [18]) was 98. For the same molecule, the “Plant response rating, Soybean” value (soybean (Glycine max); [11]) was 75, the “Plant response rating, Soybean” value (soybean (Glycine max); [12]) was 98 and the “Plant response rating, Soybean” value (soybean (Glycine max); [13]) was 98. For the same molecule, the “Plant response rating, Soybean” value (soybean (Glycine max); [14]) was 60, the “Plant response rating, Soybean” value (soybean (Glycine max); [15]) was 60 and the “Soybean plant response rating” value (soybean (Glycine max); [16]) was 65. The “Plant response rating, Pigweed” value [4, 11] was 100, the “Plant response rating, Pigweed” value [4, 12] was 95 and the “Plant response rating, Pigweed” value [4, 13] was 98. The “Plant response rating, Pigweed” value [4, 14] was 100, the “Plant response rating, Pigweed” value [4, 15] was 100 and the “Pigweed plant response rating” value [4, 16] was 100. The “Plant response rating, Surinam Grass” value [5, 11] was 100, the “Plant response rating, Surinam Grass” value [5, 12] was 65 and the “Plant response rating, Surinam Grass” value [5, 13] was 75. For the same molecule, the “Plant response rating, Surinam Grass” value [5, 14] was 0, the “Plant response rating, Surinam Grass” value [5, 15] was 65 and the “Surinam Grass plant response rating” value [5, 16] was 95. The “Plant response rating, Ryegrass, Italian” value [6, 11] was 5, the “Plant response rating, Ryegrass, Italian” value [6, 12] was 10 and the “Plant response rating, Ryegrass, Italian” value [6, 13] was 40. For the same molecule, the “Plant response rating, Ryegrass, Italian” value [6, 14] was 0, the “Plant response rating, Ryegrass, Italian” value [6, 15] was 0 and the “Ryegrass, Italian plant response rating” value [6, 16] was 5. The “Plant response rating, Foxtail, Giant” value [7, 11] was 98, the “Plant response rating, Foxtail, Giant” value [7, 17] was 75 and the “Plant response rating, Foxtail, Giant” value [7, 12] was 80. For the same molecule, the “Plant response rating, Foxtail, Giant” value [7, 13] was 85, the “Foxtail, Giant plant response rating” value [7, 18] was 95 and the “Plant response rating, Foxtail, Giant” value [7, 14] was 10. For the same molecule, the “Plant response rating, Foxtail, Giant” value [7, 15] was 45, the “Foxtail, Giant plant response rating” value [7, 16] was 95 and the “Plant response rating, Ragweed” value [8, 11] was 100. The “Plant response rating, Ragweed” value [8, 12] was 95, the “Plant response rating, Ragweed” value [8, 13] was 98 and the “Plant response rating, Ragweed” value [8, 14] was 80. The “Plant response rating, Ragweed” value [8, 15] was 85, the “Ragweed plant response rating” value [8, 16] was 100 and the “Plant response rating, Bromegrass, Downy” value [9, 11] was 30. The “Plant response rating, Bromegrass, Downy” value [9, 17] was 5, the “Plant response rating, Bromegrass, Downy” value [9, 12] was 5 and the “Plant response rating, Bromegrass, Downy” value [9, 13] was 10. The “Bromegrass, Downy plant response rating” value [9, 18] was 20, the “Plant response rating, Bromegrass, Downy” value [9, 14] was 0 and the “Plant response rating, Bromegrass, Downy” value [9, 15] was 0. For the same molecule, the “Bromegrass, Downy plant response rating” value [9, 16] was 5, the “Plant response rating, Johnsongrass” value [10, 11] was 20 and the “Plant response rating, Johnsongrass” value [10, 12] was 35. For the same molecule, the “Plant response rating, Johnsongrass” value [10, 13] was 35, the “Johnsongrass plant response rating” value [10, 18] was 40 and the “Plant response rating, Johnsongrass” value [10, 14] was 0. For the same molecule, the “Plant response rating, Johnsongrass” value [10, 15] was 0 and the “Johnsongrass plant response rating” value [10, 16] was 0.

For `CCCn1c(-c2cc(F)cc(F)c2)ncc(C(=O)C2=C(O)CCCC2=O)c1=O` [Compound 152], the “Velvetleaf plant response rating (0 to 100 scale)” value [1, 19] was 95, the “Plant response rating, Velvetleaf” value [1, 20] was 85 and the “Plant response rating, Velvetleaf” value [1, 21] was 100. For the same molecule, the “Plant response rating, Velvetleaf” value [1, 22] was 100, the “Corn plant response rating (0 to 100 scale)” value (corn (Zea mays); [19]) was 45 and the “Plant response rating, Corn” value (corn (Zea mays); [20]) was 25. The “Plant response rating, Corn” value (corn (Zea mays); [21]) was 65, the “Plant response rating, Corn” value (corn (Zea mays); [22]) was 80 and the “Blackgrass plant response rating (0 to 100 scale)” value [2, 19] was 35. For the same molecule, the “Plant response rating, Blackgrass” value [2, 20] was 20, the “Plant response rating, Blackgrass” value [2, 21] was 55 and the “Plant response rating, Blackgrass” value [2, 22] was 70. The “Cupgrass, Woolly plant response rating (0 to 100 scale)” value [3, 19] was 98, the “Plant response rating, Cupgrass, Woolly” value [3, 20] was 95 and the “Plant response rating, Cupgrass, Woolly” value [3, 21] was 98. For the same molecule, the “Plant response rating, Cupgrass, Woolly” value [3, 22] was 100, the “Kochia plant response rating (0 to 100 scale)” value (kochia (Kochia scoparia); [19]) was 65 and the “Plant response rating, Kochia” value (kochia (Kochia scoparia); [20]) was 10. The “Plant response rating, Kochia” value (kochia (Kochia scoparia); [21]) was 95, the “Plant response rating, Kochia” value (kochia (Kochia scoparia); [22]) was 100 and the “Soybean plant response rating (0 to 100 scale)” value (soybean (Glycine max); [19]) was 70. The “Plant response rating, Soybean” value (soybean (Glycine max); [20]) was 70, the “Plant response rating, Soybean” value (soybean (Glycine max); [21]) was 98 and the “Plant response rating, Soybean” value (soybean (Glycine max); [22]) was 100. For the same molecule, the “Pigweed plant response rating (0 to 100 scale)” value [4, 19] was 98, the “Plant response rating, Pigweed” value [4, 20] was 95 and the “Plant response rating, Pigweed” value [4, 21] was 100. For the same molecule, the “Plant response rating, Pigweed” value [4, 22] was 100, the “Surinam Grass plant response rating (0 to 100 scale)” value [5, 19] was 85 and the “Plant response rating, Surinam Grass” value [5, 20] was 75. For the same molecule, the “Plant response rating, Surinam Grass” value [5, 21] was 90, the “Plant response rating, Surinam Grass” value [5, 22] was 95 and the “Ryegrass, Italian plant response rating (0 to 100 scale)” value [6, 19] was 30. The “Plant response rating, Ryegrass, Italian” value [6, 20] was 5, the “Plant response rating, Ryegrass, Italian” value [6, 21] was 45 and the “Plant response rating, Ryegrass, Italian” value [6, 22] was 80. For the same molecule, the “Foxtail, Giant plant response rating (0 to 100 scale)” value [7, 19] was 85, the “Plant response rating, Foxtail, Giant” value [7, 20] was 80 and the “Plant response rating, Foxtail, Giant” value [7, 21] was 95. For the same molecule, the “Plant response rating, Foxtail, Giant” value [7, 22] was 98, the “Ragweed plant response rating (0 to 100 scale)” value [8, 19] was 80 and the “Plant response rating, Ragweed” value [8, 20] was 60. The “Plant response rating, Ragweed” value [8, 21] was 95, the “Plant response rating, Ragweed” value [8, 22] was 98 and the “Bromegrass, Downy plant response rating (0 to 100 scale)” value [9, 19] was 55. For the same molecule, the “Plant response rating, Bromegrass, Downy” value [9, 20] was 30, the “Plant response rating, Bromegrass, Downy” value [9, 21] was 60 and the “Plant response rating, Bromegrass, Downy” value [9, 22] was 85. The “Johnsongrass plant response rating (0 to 100 scale)” value [10, 19] was 90, the “Plant response rating, Johnsongrass” value [10, 20] was 70 and the “Plant response rating, Johnsongrass” value [10, 21] was 95. For the same molecule, the “Plant response rating, Johnsongrass” value [10, 22] was 100.
